{
  "source": "patent US20260317319A1",
  "about": "“NOVEL ERGOLINES AND METHODS OF TREATING MOOD DISORDERS” (Gilgamesh Pharma Inc., priority 2023, published 2026)",
  "test_system": "Sprague Dawley rats",
  "experiment": "Forced swim test (FST) in rats",
  "format": "in vivo, rat",
  "conditions": "rat FST, dose 20 mg/kg, positive control; average of 3 independent experiments",
  "protocol": "Compound 1 induced antidepressant-like effects in the forced swim test (FST) in rats with a 23.5-h pre-treatment time (FIG. 2).\nAnimals. Male Sprague Dawley rats, aged 9-10 weeks, were used in this experiment. Animals were housed in groups of 2 under controlled temperature (22±3° C.) and relative humidity (30-70%) conditions, with 12-hour light/dark cycles, and with ad libitum food and water. This study was carried out in strict accordance with the requirements of the Committee for the Purpose of Control and Supervision of Experiments on Animals (CPCSEA), India. All efforts were made to minimize suffering.\nForced Swim Test (FST). […] Rats were handled for about 2 min daily for the 5 days prior to the beginning of the experimental procedure. On the first day of the experiment (i.e., Day 0), post randomization, training swim sessions (Swim 1) were conducted between 12:00 and 18:00 h with all animals by placing rats in individual glass cylinders (46 cm tall×20 cm in diameter) containing 23-25° C. water 30 cm deep for 15 minutes. At the conclusion of Swim 1, animals were dried with paper towels, placed in heated drying cages for 15 minutes, and then returned to their home cages. Animals were then administered the appropriate drug or vehicle treatment(s), as described above. For clarity, a compound administration time of 23.5 h before Swim 2 means 0.5 h after the start of Swim 1 and 0.25 h after the completion of Swim 1 (i.e., immediately after return to the home cage). On Day 1 (i.e., 24 h after start of Swim 1), animals performed the test swim (Swim 2) for a period of 5 min but otherwise under the same conditions as Swim 1. During all swim sessions, the water was changed between each animal.\nBehavioral scoring was conducted by observers who were blind to the treatment groups. Animals were continuously observed during Swim 2 and the total time spent engaging in the following behaviors was recorded: immobile, swimming, and climbing. A rat was judged to be immobile when it remained floating in the water without struggling and was making only those movements necessary to keep its head above water. A rat was judged to be swimming when it made active swimming motions, more than necessary to merely maintain its head above water (e.g., moving around in the cylinder). A rat was judged to be climbing when it made active movements with its forepaws in and out of the water, usually directed against the walls.\nStatistical Analysis. The data points shown represent the mean±standard error of the mean (SEM). Analysis was performed using GraphPad Prism 6. Comparisons between groups were performed using the one-way analysis of variance (ANOVA), followed by Dunnett's test for comparisons to vehicle.\nAdditional disclosed compounds were tested in the forced swim test (FST) in rats according to the procedure described in Example 58 (compounds 18 and 19 administered in 10% DMSO in saline).",
  "data": [
    {"molecule": "CNCCCN1c2ccccc2CCc2ccccc21", "note": "[Desipramine, desipramine, reference compound]", "values": [
      {"measurement": "Time Immobile", "value": 60.93, "unit": "s"}
    ]}
  ]
}
